Test results reported in patent US11104682B2, “Salts of TAM inhibitors” (Incyte Corporation, priority 2017, dated 2021).
Where a name gives a salt, the structure may show the parent alone.

Assays:
c-Mer = c-Mer (Homo sapiens (Human), UniProt Q12866); assay: TAM Enzymatic Assay (HTRF), c-Mer; type: biochemical; settings: 0.0625 nM c-Mer, ATP
Protocol: (§1) The kinase assay buffer contained 50 mM HEPES, pH7.5, 10 mM MgCl2, 1 mM EGTA, 0.01% NP-40 and 2 mM DTT. 0.1 ul test compounds dissolved in DMSO were transferred from compound plates to white 384-well assay plates (Greiner […] plates). The final concentration of DMSO was 1.25%. Enzyme solutions of 5.1 nM phosphor-Axl, or 0.0625 nM c-Mer (Carna Biosciences, 08-108), or 0.366 nM Tyro3 (Life Technologies, PR7480A) were prepared in assay buffer. A 1 mM stock solution of peptide substrate Biotin-[…]-amide SEQ ID NO: 1 (Quality Controlled Biochemicals, MA) dissolved in DMSO was diluted to 1 uM in assay buffer containing 2000 uM ATP. 4 ul enzyme solution (or assay buffer for the enzyme blank) was added to the appropriate wells in each plate, and then 4 ul/well substrate solution was added to initiate the reaction. The plate was protected from light and incubated at room temperature for 60 min. […] The plate was incubated for 1 h at room temperature, and HTRF (homogenous time resolved fluorescence) signal was measured on a PHERAstar FS plate reader (BMG labtech). Percentage of inhibition was calculated for each concentration and IC50 value was generated from curve fitting with GraphPad Prism software.

Tyro3 = Tyro3 (Homo sapiens (Human), UniProt Q06418); assay: TAM Enzymatic Assay (HTRF), Tyro3; type: biochemical; settings: 0.366 nM Tyro3, ATP
Chain of Tyro3 (Q06418 41-890): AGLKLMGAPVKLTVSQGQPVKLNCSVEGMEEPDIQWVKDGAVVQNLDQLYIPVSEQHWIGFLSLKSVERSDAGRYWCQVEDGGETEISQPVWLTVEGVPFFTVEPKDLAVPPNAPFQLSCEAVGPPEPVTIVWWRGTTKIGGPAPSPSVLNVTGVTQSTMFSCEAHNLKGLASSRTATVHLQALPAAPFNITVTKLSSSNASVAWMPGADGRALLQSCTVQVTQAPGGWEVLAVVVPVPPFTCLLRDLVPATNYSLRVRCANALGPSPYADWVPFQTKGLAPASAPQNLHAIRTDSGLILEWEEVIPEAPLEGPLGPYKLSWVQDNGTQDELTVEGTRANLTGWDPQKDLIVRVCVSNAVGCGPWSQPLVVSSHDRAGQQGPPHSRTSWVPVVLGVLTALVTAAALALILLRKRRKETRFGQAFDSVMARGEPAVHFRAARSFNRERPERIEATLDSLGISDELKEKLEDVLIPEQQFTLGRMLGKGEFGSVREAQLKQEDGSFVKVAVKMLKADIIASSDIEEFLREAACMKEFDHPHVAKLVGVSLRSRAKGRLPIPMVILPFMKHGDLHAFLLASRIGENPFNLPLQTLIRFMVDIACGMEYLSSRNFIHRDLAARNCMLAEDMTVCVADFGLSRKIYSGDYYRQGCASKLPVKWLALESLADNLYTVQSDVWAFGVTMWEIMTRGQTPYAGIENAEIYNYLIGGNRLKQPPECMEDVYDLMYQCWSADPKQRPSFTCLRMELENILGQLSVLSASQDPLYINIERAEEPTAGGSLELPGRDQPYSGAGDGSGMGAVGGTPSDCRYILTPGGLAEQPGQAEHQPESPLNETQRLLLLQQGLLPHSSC
Protocol: as §1

[1] = Solubility of Compound I maleate salt in solvents (saturated solution, HPLC); type: physicochemical; settings: thermodynamic from solid; for solubility at 48 h: 25 °C, 25±1° C.; for solubility at 24 h: 50 °C, 50±1° C.
Axl = Axl (Homo sapiens (Human), UniProt P30530); assay: TAM Enzymatic Assay (HTRF), phosphor-Axl; type: biochemical; settings: 5.1 nM phosphor-Axl, ATP
Chain of Axl (P30530 26-894): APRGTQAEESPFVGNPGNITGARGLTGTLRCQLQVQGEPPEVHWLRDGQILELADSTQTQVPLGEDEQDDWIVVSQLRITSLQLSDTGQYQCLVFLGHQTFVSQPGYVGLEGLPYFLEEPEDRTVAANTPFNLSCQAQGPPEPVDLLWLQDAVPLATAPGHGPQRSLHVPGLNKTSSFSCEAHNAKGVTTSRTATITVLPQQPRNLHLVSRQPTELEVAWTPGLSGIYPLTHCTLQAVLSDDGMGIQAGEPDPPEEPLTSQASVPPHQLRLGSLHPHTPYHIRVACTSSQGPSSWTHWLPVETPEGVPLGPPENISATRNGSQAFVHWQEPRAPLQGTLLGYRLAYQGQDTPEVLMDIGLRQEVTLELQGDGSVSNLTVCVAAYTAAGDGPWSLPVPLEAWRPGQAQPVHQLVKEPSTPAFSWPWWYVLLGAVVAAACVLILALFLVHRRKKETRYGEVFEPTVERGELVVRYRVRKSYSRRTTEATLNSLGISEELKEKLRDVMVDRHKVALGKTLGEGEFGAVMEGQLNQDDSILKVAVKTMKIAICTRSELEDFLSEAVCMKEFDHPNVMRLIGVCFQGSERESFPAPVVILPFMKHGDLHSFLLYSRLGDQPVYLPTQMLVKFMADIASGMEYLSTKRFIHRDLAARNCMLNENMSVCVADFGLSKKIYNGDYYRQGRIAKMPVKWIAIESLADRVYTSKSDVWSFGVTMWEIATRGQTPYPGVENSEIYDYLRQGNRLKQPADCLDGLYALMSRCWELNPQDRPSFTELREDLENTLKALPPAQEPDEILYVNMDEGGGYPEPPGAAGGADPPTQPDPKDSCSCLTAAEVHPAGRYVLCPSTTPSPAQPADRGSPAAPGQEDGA
Protocol: Autophosphorylation of Axl was carried out by incubating the recombinant Axl protein (Life Technologies, PV4275) in buffer containing 50 mM Tris, pH7.5, 0.2 mg/ml Axl, 5 mM ATP, 20 mM MgCl2 and 2 mM DTT at room temperature for 1 hour.
as §1, with “reaction.” for “reaction. The plate was protected from light and incubated at room temperature for 60 min.”

[2] = organic solvent or mixture, solvent 1,4-Dioxane
[3] = organic solvent or mixture, solvent 1-Propanol
[4] = organic solvent or mixture, solvent 2-Methoxyethanol
[5] = organic solvent or mixture, solvent Acetone
[6] = organic solvent or mixture, solvent Chloroform
[7] = organic solvent or mixture, solvent DMF
[8] = organic solvent or mixture, solvent DMSO
[9] = organic solvent or mixture, solvent Dichloromethane
[10] = organic solvent or mixture, solvent EtOAc
[11] = organic solvent or mixture, solvent EtOH
[12] = organic solvent or mixture, solvent Ethyl formate
[13] = organic solvent or mixture, solvent IPA
[14] = organic solvent or mixture, solvent IPAc
[15] = organic solvent or mixture, solvent MEK
[16] = organic solvent or mixture, solvent MIBK
[17] = organic solvent or mixture, solvent MTBE
[18] = organic solvent or mixture, solvent MeCN
[19] = organic solvent or mixture, solvent Methanol
[20] = organic solvent or mixture, solvent THF
[21] = organic solvent or mixture, solvent Toluene
[22] = organic solvent or mixture, solvent n-BuOH

Chain of c-Mer (Q12866 21-999): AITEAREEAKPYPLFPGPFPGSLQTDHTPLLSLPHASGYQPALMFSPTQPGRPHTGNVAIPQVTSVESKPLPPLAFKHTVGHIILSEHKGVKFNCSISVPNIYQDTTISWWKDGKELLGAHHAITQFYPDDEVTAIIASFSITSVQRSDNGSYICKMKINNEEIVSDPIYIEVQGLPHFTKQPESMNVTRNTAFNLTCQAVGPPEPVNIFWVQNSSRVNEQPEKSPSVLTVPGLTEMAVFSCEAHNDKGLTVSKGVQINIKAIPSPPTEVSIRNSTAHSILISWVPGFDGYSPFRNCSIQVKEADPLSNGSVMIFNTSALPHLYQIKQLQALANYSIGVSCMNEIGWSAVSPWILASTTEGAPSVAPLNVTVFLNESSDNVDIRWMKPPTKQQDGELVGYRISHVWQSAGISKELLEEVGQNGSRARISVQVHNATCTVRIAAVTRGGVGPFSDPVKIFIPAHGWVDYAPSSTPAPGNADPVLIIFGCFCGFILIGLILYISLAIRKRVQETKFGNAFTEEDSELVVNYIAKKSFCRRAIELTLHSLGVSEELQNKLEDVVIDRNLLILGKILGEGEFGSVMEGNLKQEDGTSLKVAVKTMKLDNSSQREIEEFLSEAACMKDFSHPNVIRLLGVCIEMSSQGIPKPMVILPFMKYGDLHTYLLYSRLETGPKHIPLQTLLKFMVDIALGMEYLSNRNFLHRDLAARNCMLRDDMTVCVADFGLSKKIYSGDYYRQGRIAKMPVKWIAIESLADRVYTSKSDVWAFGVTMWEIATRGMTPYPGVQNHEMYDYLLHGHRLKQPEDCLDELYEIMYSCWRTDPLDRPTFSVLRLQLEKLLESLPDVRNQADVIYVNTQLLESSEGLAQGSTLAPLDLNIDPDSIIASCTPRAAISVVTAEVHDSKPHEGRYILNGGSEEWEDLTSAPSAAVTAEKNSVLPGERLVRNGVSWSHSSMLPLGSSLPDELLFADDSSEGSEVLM

Which results are given for `CC(C)C(=O)N1CCC(c2cc(-c3ccc(NC(=O)c4cn(C(C)C)c(=O)n(-c5ccccn5)c4=O)cc3)c3c(N)ncnn23)CC1` [Compound I maleate salt, N-(4-(4-Amino-7-(1-isobutyrylpiperidin-4-yl)pyrrolo[1,2-f][1,2,4]triazin-5-yl)phenyl)-1-isopropyl-2,4-dioxo-3-(pyridin-2-yl)-1,2,3,4-tetrahydropyrimidine-5-carboxamide maleate]?
IC50 (c-Mer): ≤ 5 nM; IC50 (Tyro3): 10 to 100 nM; solubility at 48 h [1, 2]: 2310 µg/mL; solubility at 48 h [1, 3]: 440 µg/mL; solubility at 48 h ([1]; organic solvent or mixture, solvent 2% DCM/98% MeOH (V/V)): 1460 µg/mL; solubility at 48 h [1, 4]: 5960 µg/mL; solubility at 48 h ([1]; organic solvent or mixture, solvent 10% DCM/90% MeOH (V/V)): 1880 µg/mL; solubility at 48 h [1, 5]: 1680 µg/mL; solubility at 48 h [1, 6]: 6120 µg/mL; solubility at 48 h ([1]; organic solvent or mixture, solvent DCM/MeOH(2/1)): > 50000 µg/mL; solubility at 48 h [1, 7]: > 50000 µg/mL; solubility at 48 h [1, 8]: > 50000 µg/mL; solubility at 48 h [1, 9]: 24400 µg/mL; solubility at 48 h [1, 10]: 180 µg/mL; solubility at 48 h [1, 11]: 650 µg/mL; solubility at 48 h [1, 12]: 680 µg/mL; solubility at 48 h [1, 13]: 160 µg/mL; solubility at 48 h [1, 14]: 270 µg/mL; solubility at 48 h [1, 15]: 280 µg/mL; solubility at 48 h [1, 16]: 430 µg/mL; solubility at 48 h [1, 17]: 80 µg/mL; solubility at 48 h [1, 18]: 280 µg/mL; solubility at 48 h [1, 19]: 1640 µg/mL; solubility at 48 h [1, 20]: 920 µg/mL; solubility at 48 h [1, 21]: 180 µg/mL; solubility at 48 h [1, 22]: 210 µg/mL; solubility at 48 h ([1]; solvent Water): 20 µg/mL; solubility at 24 h [1, 2]: 4620 µg/mL; solubility at 24 h [1, 3]: 1310 µg/mL; solubility at 24 h [1, 4]: 14800 µg/mL; solubility at 24 h [1, 5]: 3050 µg/mL; solubility at 24 h [1, 6]: 13700 µg/mL; solubility at 24 h [1, 7]: > 50000 µg/mL; solubility at 24 h [1, 8]: > 50000 µg/mL; solubility at 24 h [1, 9]: 33700 µg/mL; solubility at 24 h [1, 10]: 400 µg/mL; solubility at 24 h [1, 11]: 1930 µg/mL; solubility at 24 h [1, 12]: 990 µg/mL; solubility at 24 h [1, 13]: 680 µg/mL; solubility at 24 h [1, 14]: 330 µg/mL; solubility at 24 h [1, 15]: 2190 µg/mL; solubility at 24 h [1, 16]: 740 µg/mL; solubility at 24 h [1, 17]: 100 µg/mL; solubility at 24 h [1, 18]: 680 µg/mL; solubility at 24 h [1, 19]: 3090 µg/mL; solubility at 24 h [1, 20]: 1630 µg/mL; solubility at 24 h [1, 21]: 200 µg/mL; solubility at 24 h [1, 22]: 1100 µg/mL; solubility at 24 h ([1]; solvent Water): 40 µg/mL; IC50 (Axl): ≤ 5 nM

What does the source list for `CC(C)C(=O)N1CCC(c2cc(-c3ccc(NC(=O)c4cn(C(C)C)c(=O)n(-c5ccccc5)c4=O)cc3)c3c(N)ncnn23)CC1` [Compound II hemi-sulfuric acid salt, N-(4-(4-Amino-7-(1-isobutyrylpiperidin-4-yl)pyrrolo[1,2-f][1,2,4]triazin-5-yl)phenyl)-1-isopropyl-2,4-dioxo-3-phenyl-1,2,3,4-tetrahydropyrimidine-5-carboxamide hemisulfate]?
IC50 (c-Mer): ≤ 5 nM; IC50 (Tyro3): 10 to 100 nM; IC50 (Axl): ≤ 5 nM
